Data reported in patent US10000510B2, “Salt forms of ceftolozane” (Merck Sharp & Dohme Corp., priority 2014, dated 2018).
Structures can show the parent of a compound that is named as a salt.

Assays:
Assay type in all cases: physicochemical
[1] = Stability of ceftolozane salts at 25° C. and 60% RH for two or four weeks, loss of purity by HPLC; conditions: 25° C. and 60% relative humidity; for 4 w, Loss of Purity: four weeks; for 2 w, Loss of Purity: two weeks (14 days)
Method: (§1) The ceftolozane salt forms provided herein can also be evaluated for stability upon exposure to high temperatures and humidity. The stability evaluation of the ceftolozane salts can be carried out by HPLC analysis using, for example, the method described in Example 1. For examples, the ceftolozane salt forms can be subjected to 40° C. and 75% relative humidity (RH) for one week (7 days) or, 25° C. and 60% relative humidity (RH) for two weeks or for four weeks. The purity and loss of purity (LOP) of these samples can be evaluated by measuring the amount of ceftolozane by HPLC (e.g., Example 1). The results of the stability analysis are summarized in the following Table B: Unless otherwise indicated herein, the HPLC method of Example 1 was used to measure ceftolozane purity disclosed herein. The loss of purity (LOP) was calculated as the difference between the initial ceftolozane purity and the ceftolozane purity after being subject to the conditions of the stability test (e.g., at 40° C. and 75% relative humidity (RH) for one week), wherein the purity was measured using the HPLC method described below. Standards and samples are prepared in 50 mM sodium perchlorate monohydrate, pH 4.00. A quantitation standard (Standard Solution 1) and check standard (Standard Solution 2) are both prepared at the target working concentration of 0.3 mg/mL taking into consideration the potency, as-is of the standard. The samples are prepared at the target active concentration of 0.3 mg/mL by preparing a sample at 0.04% (w/v). [table]

[2] = Stability of ceftolozane salts at 40° C. and 75% RH for one week, loss of purity by HPLC; conditions: 40° C. and 75% relative humidity, one week (7 days), initial purity minus purity after storage
Method: as §1

[3] = Dry stability of lyophilized ceftolozane zwitterion/stabilizing agent compositions at 40° C./75% RH, purity by HPLC; conditions: lyophilized solid
Method: The following HPLC method was used to measure ceftolozane purity disclosed in Examples 13 through 15.
HPLC conditions for Ceftolozane Purity:
Mobile Phase A: 50 mM Sodium Perchlorate, pH 2.5
Mobile Phase B: 20% ACN in 63 mM Sodium Perchlorate, pH 2.5
Column: Phenomenex Develosil ODS-UG-5, 5 μm, 250 mm×4.6 mm
Sample Solution: 1 mg/mL in water
Active ceftolozane zwitterion (“Cef”; 1620 mg; 2.1 mmol) and sodium chloride (122 mg; 2.1 mmol) were dissolved in 8.25 mL of sterile water to obtain pale yellowish solution. Aliquoted the complex solution to 5-mL freeze drying vials (0.45 mL per vial, 18 vials in total) which were positioned in a lyophilization tray. The key lyophilization conditions included freezing at −50° C. to −55° C. for 2 hours, primary drying at −30° C., 50 millitorrs for 40 hours, secondary drying at 20° C., 50 millitorrs for 7 hours, and storing at 5° C., 600 millitorrs until harvesting. The sublimate was condensed at −60° C. The freeze drying vials were harvested, inserted with proper stoppers, sealed with crimp seals, and labeled as Cef:NaCl(1:1) for dry stability evaluation at 40° C./75% RH. The vials were stored at 40° C. and 75% relative humidity (RH).
The following compositions were prepared analogously: ceftolozane zwitterion and sodium chloride (1:0.5) complex, ceftolozane zwitterion and sodium chloride (1:2) complex, ceftolozane zwitterion and sodium sulfate (1:1) complex, ceftolozane zwitterion and sodium sulfate (1:0.5) complex, ceftolozane zwitterion and sodium sulfate (1:2) complex, ceftolozane zwitterion and calcium chloride (1:1) complex, ceftolozane zwitterion and calcium chloride (1:0.5) complex, ceftolozane zwitterion and calcium chloride (1:2) complex, ceftolozane zwitterion and magnesium chloride (1:1) complex, ceftolozane zwitterion and magnesium chloride (1:0.5) complex, ceftolozane zwitterion and magnesium chloride (1:2) complex.
These compositions and ceftolozane zwitterion alone were evaluated for stability at 40° C./75% RH by HPLC. The dry samples were dissolved in water for loading onto the column.

[4] = listed as phosphate salt of ceftolozane

Cn1c(N)c(NC(=O)NCCN)c[n+]1CC1=C(C(=O)O)N2C(=O)[C@@H](NC(=O)/C(=N\OC(C)(C)C(=O)O)c3nsc(N)n3)[C@H]2SC1 [Ceftolozane chloride, ceftolozane chloride]
4 w, Loss of Purity [1]: 2.9%
2 w, Loss of Purity [1]: 1.0%
1 w, Loss of Purity [2]: 7.5%
1 w, Loss of Purity ([2]; listed as chloride salt of ceftolozane): 7.5%

Cn1c(N)c(NC(=O)NCCN)c[n+]1CC1=C(C(=O)O)N2C(=O)[C@@H](NC(=O)/C(=N\OC(C)(C)C(=O)O)c3nsc(N)n3)[C@H]2SC1 [Ceftolozane sulfate, 5-amino-4-{[(2-aminoethyl)carbamoyl]amino}-2-{[(6R,7R)-7-({(2Z)-2-(5-amino-1,2,4-thiadiazol-3-yl)-2-[(1-carboxy-1-methylethoxy)imino]acetyl}amino)-2-carboxy-8-oxo-5-thia-1-azabicyclo[4.2.0]oct-2-en-3-yl]methyl}-1-methyl-1H-pyrazolium monosulfate, reference compound]
4 w, Loss of Purity [1]: 5.1%
2 w, Loss of Purity [1]: 1.2%
1 w, Loss of Purity [2]: 22.4%

Cn1c(N)c(NC(=O)NCCN)c[n+]1CC1=C(C(=O)[O-])N2C(=O)[C@@H](NC(=O)/C(=N\OC(C)(C)C(=O)O)c3nsc(N)n3)[C@H]2SC1 [Ceftolozane zwitterion, (6R,7R)-3-[(5-amino-4-{[(2-aminoethyl)carbamoyl]amino}-1-methyl-1H-pyrazol-2-ium-2-yl)methyl]-7-({(2Z)-2-(5-amino-1,2,4-thiadiazol-3-yl)-2-[(1-carboxy-1-methylethoxy)imino]acetyl}amino)-8-oxo-5-thia-1-azabicyclo[4.2.0]oct-2-ene-2-carboxylate]
4 w, Loss of Purity [1]: 7.4%
2 w, Loss of Purity [1]: 3.6%
1 w, Loss of Purity [2]: 14.4%
% purity of Ceftolozane, 3 day ([3]; 3 day at 40° C./75% RH): 88.0%
% purity of Ceftolozane, 7 day ([3]; 7 day at 40° C./75% RH): 84.5%
% purity of Ceftolozane, 14 day ([3]; 14 day at 40° C./75% RH): 77.9%
% purity of Ceftolozane, T0 ([3]; T0 (start of storage at 40° C./75% RH)): 92.6%

ceftolozane bromide
4 w, Loss of Purity [1]: 2.3%
2 w, Loss of Purity [1]: 0.4%
2 w, Loss of Purity ([1]; listed as bromide salt of ceftolozane): 0.4%
1 w, Loss of Purity [2]: 13.3%

ceftolozane edisylate
4 w, Loss of Purity [1]: 1.7%
4 w, Loss of Purity ([1]; listed as edisylate salt of ceftolozane): 1.7%
2 w, Loss of Purity [1]: 1.5%
1 w, Loss of Purity [2]: 9.6%

ceftolozane ketoglutarate
4 w, Loss of Purity [1]: 5.8%
2 w, Loss of Purity [1]: 3.5%
1 w, Loss of Purity [2]: 22.6%

ceftolozane maleate
4 w, Loss of Purity [1]: 5.2%
2 w, Loss of Purity [1]: 3.6%
1 w, Loss of Purity [2]: 9.3%

ceftolozane mesylate
4 w, Loss of Purity [1]: 4.3%
2 w, Loss of Purity [1]: 1.3%
1 w, Loss of Purity [2]: 8.3%

ceftolozane phosphate
4 w, Loss of Purity [1]: 13.7%
4 w, Loss of Purity [1, 4]: 13.7%
2 w, Loss of Purity [1]: 4.5%
2 w, Loss of Purity [1, 4]: 4.5%
1 w, Loss of Purity [2]: 30.9%
1 w, Loss of Purity [2, 4]: 30.9%
